Assay results taken from patent US20100184664A1, “OPHTHALMIC COMPOSITIONS USEFUL FOR IMPROVING VISUAL ACUITY” (Allergan, Inc., priority 2008, published 2010).

Columns and labels:
[1] = test system: phosphorylated c-jun N-terminal kinases (p-JNK1 and p-JNK2); assay: Western blot analysis of phosphorylated JNK1 and JNK2 in primary corneal epithelial cultures under hyperosmolar media; format: cell-based, human; conditions: 2 mM; for JNK activation (levels of JNK1 and JNK2, Western blot intensity) compared to 400 mOsmols/kg media alone: pre-added 60 minutes, 1 hour, FIGS. 1 and 2; for levels of JNK1 and JNK2 in 300 mOsmols/kg cultures: FIG. 2
Protocol: (§1) Human corneoscleral tissues, from donors aged 16-59 years were obtained from the Lions Eye Bank of Texas (Houston, Tex.). Corneal epithelial cells were grown from limbal explants. In brief, after carefully removing the central cornea, excess conjunctiva and iris and corneal endothelium, the limbal rim was cut into 12 equal pieces (about 2×2 mm size each). Two of these pieces were placed epithelial side up into each well of 6-well culture plates, and each explant was covered with a drop of fetal bovine serum (FBS) overnight. The explants were then cultured in SHEM medium, which was an 1:1 mixture of Dulbecco modified Eagle medium (DMEM) and Ham F-12 medium containing 5 ng/mL EGF, 5 μg/mL insulin, 5 μg/mL transferrin, 5 ng/mL sodium selenite, 0.5 μg/mL hydrocortisone, 30 ng/mL cholera toxin A, 0.5% DMSO, 50 μg/mL gentamicin, 1.25 μg/mL amphotericin B and 5% FBS, at 37° C. under 5% CO2 and 95% humidity. The medium was renewed every 2-3 days. Epithelial phenotype of these cultures was confirmed by characteristic morphology and immuno-fluorescent staining with cytokeratin antibodies (AE-1/AE-3).
(§2) A series of primary sub-confluent corneal epithelial cultures (grown for 12 to 14 days, about 4-5×10^5 cells/well) were washed three times with […] buffered saline (PBS) and switched to an Earle's Balanced Salt Solution (EBSS, 300 mOsmols/kg) for 24 hours before treatment. The corneal epithelial cells were cultured for 1 hour in an equal volume (2.0 mL/well) of EBSS media or 400 mOsmols/kg media by adding 53 mM NaCl or sucrose, with either L-carnitine inner salt, betaine hydrochloride, erythritol, or xylitol (all at a concentration of 2 mM) that were pre-added 60 minutes before adding NaCl or sucrose. Samples without these osmoprotectants were also prepared and tested.
(§3) The adherent cells were lysed in Beadlyte® Buffer B (included in the Beadlyte® Cell Signaling buffer kit, Upstate Biotechnology, Lake Placid, N.Y.) containing an EDTA-free protease inhibitor cocktail tablet (Roche Applied Science, Indianapolis, Ind.) for 15 minutes. The cell extracts were centrifuged at 12,000×g for 15 minutes at room temperature and the supernatants were stored at −80° C. until they were analyzed by Western blot analysis. The total protein concentrations of the cell extracts were determined using a Micro BCA protein assay kit (Pierce, Rockford, Ill.).
The intensity of each of JNK1 and JNK2 was tested for each of these compositions using Western blot analysis with specific antibodies to each phosphorylated species.
The Western blot analysis was conducted as follows. The protein samples (50 μg per lane) were mixed with 6×SDS reducing sample buffer and boiled for 5 minutes before loading. Proteins were separated by SDS polyacrylamide gel electrophoresis (4-15% Tris-HCl, gradient gels from Bio-Rad, Hercules, Calif.), and transferred electronically to polyvinylidine difluoride (PVDF) membranes (Millipore, Bedford, Mass.). The membranes were blocked with 5% non-fat milk in TTBS (50 mM Tris, pH 7.5, 0.9% NaCl, and 0.1% Tween-20) for 1 hour at room temperature (RT), and then incubated 2 hours at RT with a 1:1000 dilution of rabbit antibody against phospho-p38 MAPK (Cell Signaling, Beverly, Mass.), 1:100 dilution of rabbit antibody against phospho-JNK, or 1:500 dilution of monoclonal antibody against phospho-p44/42 ERK (Santa Cruz Biotechnology, Santa Cruz, Calif.).
After three washings with TTBS, the membranes were incubated for 1 hour at RT with horseradish peroxidase-conjugated secondary antibody goat anti-rabbit IgG (1:2000 dilution, Cell Signaling, Beverly, Mass.), or goat anti-mouse IgG (1:5000 dilution, Pierce, Rockford, Ill.). After washing the membranes four times, the signals were detected with an ECL advance chemiluminescence reagent (Amersham, Piscataway, N.J.) and the images were acquired by a Kodak image station 2000R (Eastman Kodak, New Haven, Conn.). […]

[2] = test system: corneal epithelial cells isolated from the rabbit eye; assay: Trans-epithelial electrical resistance (TEER) of layered air-lift corneal epithelial cultures under hypertonic fluid; format: cell-based; conditions: for TEER (as % of isotonic control) at 22 hours: 2 mM solute in hypertonic fluid (400 mOsmols/kg), 22 hours exposure, isotonic control 100%, hypertonic control 23.3; for osmoprotective benefit (TEER relative to the hypertonic control), in words: Example 1, 2 mM, 400 mOsmols/kg, 22 hours; for % TEER relative to the isotonic control, response to concentration: Example 4, different concentrations, TEER measured from 0 to 24 hours, FIG. 6
Source text: In this experiment, corneal epithelial cells were isolated from the rabbit eye and grown under conditions so that they differentiate into a layered “air-lift” culture that includes basal, wing, and squamous cells. As they grow and differentiate, these cultures developed tight junctions between cells that provide the basis for a trans-epithelial electrical resistance (TEER) across the cell layers between the apical and basal surfaces. The TEER value is a sensitive measure of cell growth, differentiation and health.
After 5 days in culture during which the layered structure forms, different culture wells were exposed to hypertonic fluid (400 mOsmols/kg) with or without addition of one of 6 candidate compatible solutes at a low concentration (2 mM). The TEER was then measured after 22 hours of exposure. The TEER value was expressed as a percentage of the TEER value obtained from a similar culture under isotonic (300 mOsmol/kg) conditions.
Example 1 is repeated except that different concentrations of each of the candidate materials are used, and the TEER is measured at various times from 0 to 24 hours.
As in Example 1, the TEER variable is represented as % TEER relative to the isotonic control. […]

ERK MAP Kinase = assay: Beadlyte Cell Signaling Assay, phospho:total ERK MAP Kinase; format: cell-based, human; conditions: Beadlyte method, FIG. 5
Protocol: as §1, §2
as §3, with “Ill.). […]” for “Ill.).”
(§4) The beads were washed and mixed with biotinylated specific reporter antibodies for phospho-MAPK or total-MAPK, followed by streptavidin-phycoerythrin. The amount of total or phospho-MAPK was then quantified by the Luminex 100™ system (Luminex, Austin, Tex.). Fifty events per bead were read, and the data output obtained from the Bio-Plex Manager software were exported to Microsoft Excel® for further analysis. […]

phospho-JNK / total JNK = assay: Beadlyte Cell Signaling Assay, phosphorylated:total JNK; format: cell-based, human; conditions: Beadlyte method, FIG. 3
Protocol: as §1, §2
as §3, with “Ill.). […]” for “Ill.).”
as §4

[3] = Component compatibility with stabilized chlorine dioxide preservative; format: physicochemical; conditions: composition including betaine and stabilized chlorine dioxide
Protocol: A composition including betaine and stabilized chlorine dioxide, as a preservative, was tested for component compatibility. […] Thus, betaine is not useful with is certain preservatives, such as stabilized chlorine dioxide. However, betaine may advantageously be employed as a compatible solute in ophthalmic compositions which use other preservative systems, or which are free of preservatives, for example, in single or unit-dose applications.

p38 MAP Kinase = assay: Beadlyte Cell Signaling Assay, phospho:total p38 MAP Kinase; format: cell-based, human; conditions: Beadlyte method, FIG. 4
Protocol: Human corneoscleral tissues, from donors aged 16-59 years were obtained from the Lions Eye Bank of Texas (Houston, Tex.). Corneal epithelial cells were grown from limbal explants. In brief, after carefully removing the central cornea, excess conjunctiva and iris and corneal endothelium, the limbal rim was cut into 12 equal pieces (about 2×2 mm size each). Two of these pieces were placed epithelial side up into each well of 6-well culture plates, and each explant was covered with a drop of fetal bovine serum (FBS) overnight. […]
as §3, with “Ill.). […]” for “Ill.).”
The beads were washed and mixed with biotinylated specific reporter antibodies for phospho-MAPK or total-MAPK, followed by streptavidin-phycoerythrin. The amount of total or phospho-MAPK was then quantified by the Luminex 100™ system (Luminex, Austin, Tex.). […]

OC[C@@H](O)[C@H](O)[C@@H](O)CO [Xylitol]
JNK activation (levels of JNK1 and JNK2, Western blot intensity) compared to 400 mOsmols/kg media alone [1]: no effect | TEER (as % of isotonic control) at 22 hours [2]: 94.1% | osmoprotective benefit (TEER relative to the hypertonic control), in words [2]: good results | amount of ERK relative to the hypertonic control (ERK MAP Kinase): reduced | amount of phospho-total JNK relative to the hypertonic control (phospho-JNK / total JNK): reduced

C[N+](C)(C)C[C@H](O)CC(=O)[O-] [Carnitine]
levels of JNK1 and JNK2 in 300 mOsmols/kg cultures [1]: less robust effect | JNK activation (levels of JNK1 and JNK2, Western blot intensity) compared to 400 mOsmols/kg media alone [1]: definite decrease | TEER (as % of isotonic control) at 22 hours [2]: 118.9% | osmoprotective benefit (TEER relative to the hypertonic control), in words [2]: most benefit | % TEER relative to the isotonic control, response to concentration [2]: dose-related response | amount of ERK relative to the hypertonic control (ERK MAP Kinase): did not | amount of phospho-total JNK relative to the hypertonic control (phospho-JNK / total JNK): reduced

OC[C@@H](O)[C@@H](O)CO [Erythritol]
JNK activation (levels of JNK1 and JNK2, Western blot intensity) compared to 400 mOsmols/kg media alone [1]: no effect | TEER (as % of isotonic control) at 22 hours [2]: 107.4% | osmoprotective benefit (TEER relative to the hypertonic control), in words [2]: best results among the polyols tested | % TEER relative to the isotonic control, response to concentration [2]: dose-related response | amount of ERK relative to the hypertonic control (ERK MAP Kinase): reduced | amount of phospho-total JNK relative to the hypertonic control (phospho-JNK / total JNK): reduced

NCCS(=O)(=O)O [Taurine]
TEER (as % of isotonic control) at 22 hours [2]: 39.8%

C[N+](C)(C)CC(=O)O [Betaine, betaine (trimethyl glycine)]
component compatibility with stabilized chlorine dioxide (Purite7) preservative [3]: not fully compatible | levels of JNK1 and JNK2 in 300 mOsmols/kg cultures [1]: less robust effect | JNK activation (levels of JNK1 and JNK2, Western blot intensity) compared to 400 mOsmols/kg media alone [1]: definite decrease | amount of phospho-total p38 relative to the hypertonic control (p38 MAP Kinase): exception | TEER (as % of isotonic control) at 22 hours [2]: 53.3% | % TEER relative to the isotonic control, response to concentration [2]: dose-related response | amount of ERK relative to the hypertonic control (ERK MAP Kinase): did not | amount of phospho-total JNK relative to the hypertonic control (phospho-JNK / total JNK): reduced

O[C@H]1[C@H](O)[C@@H](O)[C@H](O)[C@@H](O)[C@H]1O [Myo-Inositol]
TEER (as % of isotonic control) at 22 hours [2]: 74.8% | osmoprotective benefit (TEER relative to the hypertonic control), in words [2]: good results
